{"source": "paper PMC7562719", "about": "“Discovery of a CNS penetrant small molecule SMN2 splicing modulator with improved tolerability for spinal muscular atrophy” (Scientific Reports, 2020)", "test_system": "TK6 cells", "experimental": "These articles have been recommended for use in the OECD test guideline (Test No. 487)[49]. For metabolic activation, pre-cultured TK6 cells with the culture medium were supplemented with Sprague–Dawley rat liver mix (S9 mix, IEDA TRADING CORPORATION, Japan) at 3.33 vol%. Then, compound was mixed with the cell suspension and treated under the following treatment conditions: • Short-term treatment for 3 h without S9 mix, followed by a 21-h culture (−S9 mix assay), • Short-term treatment for 3 h with S9 mix, followed by a 21-h culture (+S9 mix assay), or • Continuous treatment for 24 h without S9 mix (24-h assay). For treatment conditions 1 and 2, the cells in each well were centrifuged after the 3-h treatment, the supernatants were discarded, and the cells were washed twice with culture medium. The cells were further cultured with fresh culture medium for 21 h. The compound-treated cells were examined by the unaided eye for precipitation of compound at the start and end of treatment. After treatment, the rest of each cell suspension was centrifuged and then the cells were suspended in a 0.075 mol/L KCl solution at room temperature for 10 min. Then, 25 vol% acetic acid containing methanol was added and the centrifuged cells were fixed. The fixed cells were resuspended in a small amount of 3 vol% acetic acid containing methanol, which was changed two times by centrifugation. Finally, a drop of the cell suspension was transferred onto a slide and dried at room temperature. The slides were stained at room temperature in a 3 vol% Giemsa solution (Merck KGaA) diluted with Sörensen phosphate buffer (1/15 mol/L, pH 6.8, Muto Pure Chemicals Co. Ltd.). Four slides per dose (2 slides per well) were prepared. Each slide was coded randomly. The test was conducted at the following doses of TEC-1. -S9 mix assay: 1.5, 1.7, 1.9, 2.1, 2.3, 2.5, 2.7, 2.9, and 3.1 µg/mL, + S9 mix assay: 1.9, 2.1, 2.3, 2.5, 2.7, 2.9, 3.1, 3.3, and 3.5 µg/mL, 24-h assay: 0.9, 1.1, 1.3, 1.5, 1.7, 1.9, 2.1, 2.3, and 2.5 µg/mL. To perform scoring for compound and negative control groups, the number of cells in the suspensions was counted using a Coulter Counter (Z2; Beckman Coulter, Inc.). The positive control groups were not determined. A portion (0.5 mL) of the cell suspension was diluted with 20 mL of Isoton II, and 0.5 mL of this solution was used for cell counts. The cell number per 1 mL at each culture was calculated by the following formula. Cellnumber/mL=Dilutionfactor×valueof1stcount+valueof2ndcount/2×2\nThe population doubling (PD) and relative population doubling (RPD) at each concentration was calculated by the following formula. PD=log10cell number at the end of culture/cell number at the start of treatment∗/log102∗:1×10^5cells/mL.\nRPD%=PD of the compound-treated group/PD of the negative control group×100 For the treated groups, the 3 consecutive concentrations were selected as follows. […] For all concentrations, 4000 mononuclear cells with cytoplasm were analyzed and the number of cells with micronucleus (micronuclei) was counted using a microscope (× 600). Micronucleus is identified as a round or oval small nucleus in the cytoplasm with the same staining intensity as the main nucleus. The diameter of each micronucleus should be less than 1/2 of the diameter of the main nucleus. Two investigators observed the slides. Each investigator scored 1000 cells for the frequency of micronucleated cells. Data from the two investigators were combined for each culture and the combined data from duplicate cultures were pooled for each concentration for each treatment condition. A cell having one or more micronuclei was recorded as a micronucleated cell.", "note": "Where two headings read alike, the source gives them in different places."}
{"smiles": "Cc1cn2nc(-c3nc4ccc(N5CCN(C)CC5)cc4c(=O)[nH]3)cc2c(C)n1", "note": "[TEC-1, 2-(4,6-dimethylpyrazolo[1,5-a]pyrazin-2-yl)-6-(4-methylpiperazin-1-yl)quinazolin-4(3H)-one]", "values": [{"measurement": "micronucleus induction, overall conclusion", "value": "do not induce micronucleation"}, {"measurement": "concentration at which precipitation was noted", "setting": "24-h assay condition, culture medium", "value": "≥ 1500", "unit": "ng/mL"}, {"measurement": "concentration at which cytotoxicity (RPD of less than 50%) was noted", "setting": "human, 3 h", "value": "≥ 2300", "unit": "ng/mL"}, {"measurement": "Micronucleated cells (%)", "setting": "human, 3 h, 1.9 µg/mL", "value": "(0.73) %"}, {"measurement": "Micronucleated cells Total", "setting": "human, 3 h, 1.9 µg/mL", "value": 29}, {"measurement": "Micronucleated cells Well 1", "setting": "human, 3 h, 1.9 µg/mL", "value": 13}, {"measurement": "Micronucleated cells Well 2", "setting": "human, 3 h, 1.9 µg/mL", "value": 16}, {"measurement": "Relative population doubling", "setting": "human, 3 h, 1.9 µg/mL", "value": 68.6, "unit": "%"}, {"measurement": "Micronucleated cells (%)", "setting": "human, 3 h, 2.1 µg/mL", "value": "(0.9) %"}, {"measurement": "Micronucleated cells Total", "setting": "human, 3 h, 2.1 µg/mL", "value": 36}, {"measurement": "Micronucleated cells Well 1", "setting": "human, 3 h, 2.1 µg/mL", "value": 16}, {"measurement": "Micronucleated cells Well 2", "setting": "human, 3 h, 2.1 µg/mL", "value": 20}, {"measurement": "Relative population doubling", "setting": "human, 3 h, 2.1 µg/mL", "value": 65.4, "unit": "%"}, {"measurement": "Micronucleated cells (%)", "setting": "human, 3 h, 2.3 µg/mL", "value": "(1.4) **^,## %"}, {"measurement": "Micronucleated cells Total", "setting": "human, 3 h, 2.3 µg/mL", "value": 56}, {"measurement": "Micronucleated cells Well 1", "setting": "human, 3 h, 2.3 µg/mL", "value": 29}, {"measurement": "Micronucleated cells Well 2", "setting": "human, 3 h, 2.3 µg/mL", "value": 27}, {"measurement": "Relative population doubling", "setting": "human, 3 h, 2.3 µg/mL", "value": 35.0, "unit": "%"}, {"measurement": "Micronucleated cells (%)", "setting": "human, 24 h, 1.1 µg/mL", "value": "(0.85) %"}, {"measurement": "Micronucleated cells Total", "setting": "human, 24 h, 1.1 µg/mL", "value": 34}, {"measurement": "Micronucleated cells Well 1", "setting": "human, 24 h, 1.1 µg/mL", "value": 21}, {"measurement": "Micronucleated cells Well 2", "setting": "human, 24 h, 1.1 µg/mL", "value": 13}, {"measurement": "Relative population doubling", "setting": "human, 24 h, 1.1 µg/mL", "value": 81.7, "unit": "%"}, {"measurement": "Micronucleated cells (%)", "setting": "human, 24 h, 1.3 µg/mL", "value": "(0.73) %"}, {"measurement": "Micronucleated cells Total", "setting": "human, 24 h, 1.3 µg/mL", "value": 29}, {"measurement": "Micronucleated cells Well 1", "setting": "human, 24 h, 1.3 µg/mL", "value": 17}, {"measurement": "Micronucleated cells Well 2", "setting": "human, 24 h, 1.3 µg/mL", "value": 12}, {"measurement": "Relative population doubling", "setting": "human, 24 h, 1.3 µg/mL", "value": 74.4, "unit": "%"}, {"measurement": "Micronucleated cells (%)", "setting": "human, 24 h, 1.5 µg/mL", "value": "(0.8) %"}, {"measurement": "Micronucleated cells Total", "setting": "human, 24 h, 1.5 µg/mL", "value": 32}, {"measurement": "Micronucleated cells Well 1", "setting": "human, 24 h, 1.5 µg/mL", "value": 17}, {"measurement": "Micronucleated cells Well 2", "setting": "human, 24 h, 1.5 µg/mL", "value": 15}, {"measurement": "Relative population doubling", "setting": "human, 24 h, 1.5 µg/mL", "value": 69.5, "unit": "%"}]}
